According to patent US12492173B2, “Herbicidal substituted N-tetrazolyl aryl carboxamides” (Bayer Aktiengesellschaft, priority 2019, dated 2025):

Experiments:
Assay type in all cases: in vivo
[1] = test system: Cyperus esculentus; test: Pre-emergence herbicidal action, CYPES; set-up: key: % activity: 100 = plants have died, 0 = like control plants; details: comparative experiment
Source text: (§1) 1. Pre-Emergence Herbicidal Action Against Harmful Plants Seeds of monocotyledonous and dicotyledonous weed plants and crop plants are laid out in sandy loam soil in wood-fiber pots and covered with soil. The compounds of the invention, formulated in the form of wettable powders (WP) or as emulsion concentrates (EC), are then applied to the surface of the covering soil in the form of an aqueous suspension or emulsion at a water application rate equating to 600 to 800 l/ha, with addition of 0.2% wetting agent. After the treatment, the pots are placed in a greenhouse and kept under good growth conditions for the trial plants. The damage to the test plants is scored visually after a test period of 3 weeks by comparison with untreated controls (herbicidal activity in percent (%): 100% activity=the plants have died, 0% activity=like control plants). […] The tables below illustrate, in an exemplary manner, the […] herbicidal action of the compounds according to the invention, the herbicidal activity being stated in percent. [table] In the experiments that follow, herbicidal action of numerous inventive compounds and the known compounds that are structurally closest from D1 (WO 2012/028579 A1) and D2 (WO 2018/202535 A1) were compared under the above-specified conditions by the pre-emergence and post-emergence method. The example numbers given in the tables relate to the compounds disclosed in the respective documents. In addition to the compounds disclosed in D1 and D2, the following compounds V-1 to V-14 that are encompassed by D1 or D2 but are not compounds specified therein were used in the comparative experiments: • V-1: 2-(methylsulfanyl)-3-(methylsulfinyl)-N-(1-methyl-1H-tetrazol-5-yl)-4-(trifluoromethyl)benzamide • V-2: 2-(methylsulfanyl)-3-(methylsulfonyl)-N-(1-methyl-1H-tetrazol-5-yl)-4-(trifluoromethyl)benzamide • V-3: 2,3-bis(ethylsulfanyl)-N-(1-methyl-1H-tetrazol-5-yl)-4-(trifluoromethyl)benzamide • V-4: 2-chloro-3-(ethylsulfanyl)-N-(1-methyl-1H-tetrazol-5-yl)-4-(trifluoromethyl)benzamide • V-5: 2-chloro-4-iodo-3-(methylsulfanyl)-N-(1-methyl-1H-tetrazol-5-yl)benzamide • V-6: 2-chloro-4-iodo-3-(methylsulfinyl)-N-(1-methyl-1H-tetrazol-5-yl)benzamide • V-7: 2-chloro-4-iodo-3-(methylsulfonyl)-N-(1-methyl-1H-tetrazol-5-yl)benzamide • V-8: 2-bromo-3-(methylsulfanyl)-N-(1-methyl-1H-tetrazol-5-yl)-4-(trifluoromethyl)benzamide • V-9: 2-bromo-3-(methylsulfinyl)-N-(1-methyl-1H-tetrazol-5-yl)-4-(trifluoromethyl)benzamide • V-10: 2-bromo-3-(methylsulfonyl)-N-(1-methyl-1H-tetrazol-5-yl)-4-(trifluoromethyl)benzamide • V-11: 2-bromo-3-(ethylsulfanyl)-N-(1-methyl-1H-tetrazol-5-yl)-4-(trifluoromethyl)benzamide • V-12: 2-bromo-3-(ethylsulfinyl)-N-(1-methyl-1H-tetrazol-5-yl)-4-(trifluoromethyl)benzamide • V-13: 2-bromo-3-(ethylsulfonyl)-N-(1-methyl-1-1H-tetrazol-5-yl)-4-(trifluoromethyl)benzamide • V-14: 2-cyclopropyl-3-(ethylsulfanyl)-N-(1-methyl-1H-tetrazol-5-yl)-4-(trifluoromethyl)benzamide Herbicidal Pre-Emergence Action: […]

[2] = test system: Polygonum convolvulus; test: Post-emergence herbicidal action, POLCO; details: comparative experiment, post-emergence, 5 g of a.i./ha
Procedure: (§2) [table] 2. Post-Emergence Herbicidal Action Against Harmful Plants Seeds of monocotyledonous and dicotyledonous weed and crop plants are laid out in sandy loam soil in wood-fiber pots, covered with soil and cultivated in a greenhouse under good growth conditions. 2 to 3 weeks after sowing, the test plants are treated at the one-leaf stage. The compounds of the invention, formulated in the form of wettable powders (WP) or as emulsion concentrates (EC), are then sprayed onto the green parts of the plants in the form of an aqueous suspension or emulsion at a water application rate equating to 600 to 800 l/ha, with addition of 0.2% wetting agent. After the test plants have been left to stand in the greenhouse under optimal growth conditions for about 3 weeks, the action of the preparations is assessed visually in comparison to untreated controls (herbicidal action in percent (%): 100% activity=the plants have died, 0% activity=like control plants). […] The tables below illustrate, in an exemplary manner, the post-emergence herbicidal action of the compounds according to the invention, the herbicidal activity being stated in percent. In the experiments that follow, herbicidal action of numerous inventive compounds and the known compounds that are structurally closest from D1 (WO 2012/028579 A1) and D2 (WO 2018/202535 A1) were compared under the above-specified conditions by the pre-emergence and post-emergence method. The example numbers given in the tables relate to the compounds disclosed in the respective documents. In addition to the compounds disclosed in D1 and D2, the following compounds V-1 to V-14 that are encompassed by D1 or D2 but are not compounds specified therein were used in the comparative experiments: • V-1: 2-(methylsulfanyl)-3-(methylsulfinyl)-N-(1-methyl-1H-tetrazol-5-yl)-4-(trifluoromethyl)benzamide • V-2: 2-(methylsulfanyl)-3-(methylsulfonyl)-N-(1-methyl-1H-tetrazol-5-yl)-4-(trifluoromethyl)benzamide • V-3: 2,3-bis(ethylsulfanyl)-N-(1-methyl-1H-tetrazol-5-yl)-4-(trifluoromethyl)benzamide • V-4: 2-chloro-3-(ethylsulfanyl)-N-(1-methyl-1H-tetrazol-5-yl)-4-(trifluoromethyl)benzamide • V-5: 2-chloro-4-iodo-3-(methylsulfanyl)-N-(1-methyl-1H-tetrazol-5-yl)benzamide • V-6: 2-chloro-4-iodo-3-(methylsulfinyl)-N-(1-methyl-1H-tetrazol-5-yl)benzamide • V-7: 2-chloro-4-iodo-3-(methylsulfonyl)-N-(1-methyl-1H-tetrazol-5-yl)benzamide • V-8: 2-bromo-3-(methylsulfanyl)-N-(1-methyl-1H-tetrazol-5-yl)-4-(trifluoromethyl)benzamide • V-9: 2-bromo-3-(methylsulfinyl)-N-(1-methyl-1H-tetrazol-5-yl)-4-(trifluoromethyl)benzamide • V-10: 2-bromo-3-(methylsulfonyl)-N-(1-methyl-1H-tetrazol-5-yl)-4-(trifluoromethyl)benzamide • V-11: 2-bromo-3-(ethylsulfanyl)-N-(1-methyl-1H-tetrazol-5-yl)-4-(trifluoromethyl)benzamide • V-12: 2-bromo-3-(ethylsulfinyl)-N-(1-methyl-1H-tetrazol-5-yl)-4-(trifluoromethyl)benzamide • V-13: 2-bromo-3-(ethylsulfonyl)-N-(1-methyl-1-1H-tetrazol-5-yl)-4-(trifluoromethyl)benzamide • V-14: 2-cyclopropyl-3-(ethylsulfanyl)-N-(1-methyl-1H-tetrazol-5-yl)-4-(trifluoromethyl)benzamide Herbicidal Pre-Emergence Action: […]

[3] = test system: Echinochloa crus-galli; test: Pre-emergence herbicidal action, ECHCG
Outline: (§3)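 Pre-emergence soil spray over sandy loam-covered seeds; greenhouse 3 weeks; % visual damage (0% = control, 100% = dead).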

[4] = test system: Polygonum convolvulus; test: Pre-emergence herbicidal action, POLCO
Outline: as §3

[5] = test system: Stellaria media; test: Post-emergence herbicidal action, STEME; set-up: key: % herbicidal action vs untreated; 100 = plants died, 0 = like control; details: comparative experiment, post-emergence, 20 g of a.i./ha
Outline: (§4)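 Values are visual estimates of herbicidal action, from 0% (as untreated) to 100% (dead), made about 3 weeks after plants at one-leaf stage in sandy loam were sprayed with the formulated compound.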

[6] = test system: Alopecurus myosuroides; test: Post-emergence herbicidal action, ALOMY; set-up: key: % herbicidal action vs untreated; 100 = plants died, 0 = like control; details: comparative experiment, post-emergence, 20 g of a.i./ha
Procedure: as §2

[7] = test system: Amaranthus retroflexus; test: Pre-emergence herbicidal action, AMARE; set-up: key to Herbicidal action against AMARE: % activity: 100 = plants have died, 0 = like control plants
Outline: as §3

[8] = test system: Viola tricolor; test: Post-emergence herbicidal action, VIOTR; set-up: key: % herbicidal action vs untreated; 100 = plants died, 0 = like control; details: comparative experiment, post-emergence, 20 g of a.i./ha
Outline: as §4

[9] = test system: Setaria viridis; test: Pre-emergence herbicidal action, SETVI; set-up: key to Herbicidal action against SETVI: % activity: 100 = plants have died, 0 = like control plants
Outline: as §3

[10] = test system: Abutilon theophrasti; test: Pre-emergence herbicidal action, ABUTH; set-up: key to Herbicidal action against ABUTH: % activity: 100 = plants have died, 0 = like control plants
Outline: as §3

[11] = test system: Viola tricolor; test: Pre-emergence herbicidal action, VIOTR; set-up: key to Herbicidal action against VIOTR: % activity: 100 = plants have died, 0 = like control plants
Outline: as §3

[12] = test system: Setaria viridis; test: Post-emergence herbicidal action, SETVI; set-up: key: % herbicidal action vs untreated; 100 = plants died, 0 = like control; details: post-emergence
Outline: as §4

[13] = test system: Avena fatua; test: Post-emergence herbicidal action, AVEFA; set-up: key: % herbicidal action vs untreated; 100 = plants died, 0 = like control; details: comparative experiment, post-emergence, 20 g of a.i./ha
Procedure: as §2

[14] = test system: Veronica persica; test: Post-emergence herbicidal action, VERPE; set-up: key: % herbicidal action vs untreated; 100 = plants died, 0 = like control; details: comparative experiment, post-emergence, 20 g of a.i./ha
Outline: as §4

[15] = test system: Abutilon theophrasti; test: Post-emergence herbicidal action, ABUTH; set-up: key: % herbicidal action vs untreated; 100 = plants died, 0 = like control; details: post-emergence
Outline: as §4

[16] = test system: Veronica persica; test: Pre-emergence herbicidal action, VERPE; set-up: key to Herbicidal action against VERPE: % activity: 100 = plants have died, 0 = like control plants; details: comparative experiment, 80 g of a.i./ha
Outline: as §3

[17] = test system: Amaranthus retroflexus; test: Post-emergence herbicidal action, AMARE; set-up: key: % herbicidal action vs untreated; 100 = plants died, 0 = like control; details: post-emergence, dosage 80 g/ha
Outline: as §4

[18] = test system: Matricaria inodora; test: Post-emergence herbicidal action, MATIN; set-up: key: % herbicidal action vs untreated; 100 = plants died, 0 = like control; details: post-emergence, dosage 80 g/ha
Outline: as §4

[19] = test system: Matricaria inodora; test: Pre-emergence herbicidal action, MATIN; details: dosage 320 g/ha, scored visually after 3 weeks vs untreated controls (100% = plants have died)
Outline: as §3

[20] = test system: Pharbitis purpurea; test: Post-emergence herbicidal action, PHBPU; details: post-emergence, dosage 80 g/ha
Outline: as §4

[21] = test system: Echinochloa crus-galli; test: Post-emergence herbicidal action, ECHCG; set-up: key: % herbicidal action vs untreated; 100 = plants died, 0 = like control; details: post-emergence, dosage 80 g/ha
Outline: as §4

[22] = test system: Stellaria media; test: Pre-emergence herbicidal action, STEME; details: dosage 320 g/ha, scored visually after 3 weeks vs untreated controls (100% = plants have died)
Outline: as §3

[23] = test system: Hordeum murinum; test: Pre-emergence herbicidal action, HORMU; details: dosage 320 g/ha, scored visually after 3 weeks vs untreated controls (100% = plants have died)
Source text: as §1

[24] = comparative experiment, 20 g of a.i./ha
[25] = comparative experiment, 80 g of a.i./ha
[26] = dosage 320 g/ha, scored visually after 3 weeks vs untreated controls (100% = plants have died)

SMILES: CSc1c(C(F)(F)F)ccc(C(=O)Nc2nnnn2C)c1Br [Example V-8, 2-bromo-3-(methylsulfanyl)-N-(1-methyl-1H-tetrazol-5-yl)-4-(trifluoromethyl)benzamide, reference compound]
- Herbicidal action against CYPES ([1]; 20 g of a.i./ha): 0

SMILES: CSc1c(C(=O)Nc2nnnn2C)ccc(C(F)(F)F)c1S(C)(=O)=O [Example V-2, 2-(methylsulfanyl)-3-(methylsulfonyl)-N-(1-methyl-1H-tetrazol-5-yl)-4-(trifluoromethyl)benzamide, reference compound]
- Herbicidal action against CYPES ([1]; 20 g of a.i./ha): 0
- Herbicidal action against POLCO [2]: 0
- pest or weed control at 20 g/ha ([3]; Echinochloa crus-galli, 504 h, comparative experiment, 20 g of a.i./ha, read-out: Herbicidal action against ECHCG): 50%
- Herbicidal action against POLCO [4, 24]: 0

SMILES: CCSc1c(C(F)(F)F)ccc(C(=O)Nc2nnnn2C)c1Br [Example V-11, 2-bromo-3-(ethylsulfanyl)-N-(1-methyl-1H-tetrazol-5-yl)-4-(trifluoromethyl)benzamide, reference compound]
- Herbicidal action against STEME [5]: 0
- Herbicidal action against CYPES ([1]; 80 g of a.i./ha): 0
- Herbicidal action against ALOMY [6]: 0
- Herbicidal action against AMARE [7, 25]: 0
- pest or weed control at 80 g/ha ([3]; Echinochloa crus-galli, 504 h, comparative experiment, 80 g of a.i./ha, read-out: Herbicidal action against ECHCG): 0%
- Herbicidal action against VIOTR [8]: 20
- Herbicidal action against SETVI [9, 25]: 0
- Herbicidal action against ABUTH [10, 25]: 0
- Herbicidal action against VIOTR [11, 25]: 80
- Herbicidal action against SETVI [12, 24]: 0
- Herbicidal action against AVEFA [13]: 0
- Herbicidal action against VERPE [14]: 40
- Herbicidal action against ABUTH [15, 24]: 0
- Herbicidal action against VERPE [16]: 10

SMILES: CCn1nnnc1NC(=O)c1ccc(I)c(CSC)c1Cl [Example 2-362]
- Herbicidal action against AMARE [17]: 100
- herbicidal activity AMARE [7, 26]: 100%
- herbicidal activity ECHCG [3, 26]: 100%
- herbicidal activity SETVI [9, 26]: 100%
- herbicidal activity ABUTH [10, 26]: 100%
- herbicidal activity VIOTR [11, 26]: 100%
- Herbicidal action against SETVI ([12]; dosage 80 g/ha): 90
- herbicidal activity POLCO [4, 26]: 100%
- Herbicidal action against MATIN [18]: 100
- herbicidal activity MATIN [19]: 100%
- Herbicidal action against ABUTH ([15]; dosage 80 g/ha): 90
- Herbicidal action against PHBPU [20]: 90
- Herbicidal action against ECHCG [21]: 100
- herbicidal activity STEME [22]: 100%
- herbicidal activity HORMU [23]: 90%
